In PubChem BioAssay (NCI):
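These data come from cells grown in 96-well plates and exposed to compound for 48 hours at five concentrations. GI50: concentration for 50% inhibition of growth. The concentration for full growth arrest is given as TGI.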

Legend:
Test in all cases: DTP human tumour cell line panel, 48 h
OVCAR-3 ovarian = system: OVCAR-3 ovarian
BT-549 breast = system: BT-549 breast
K-562 leukemia = system: K-562 leukemia
LOX IMVI melanoma = system: LOX IMVI melanoma
SF-295 CNS = system: SF-295 CNS
M14 melanoma = system: M14 melanoma
A549 NSCLC = system: A549 NSCLC
A498 renal = system: A498 renal
SNB-19 CNS = system: SNB-19 CNS
OVCAR-8 ovarian = system: OVCAR-8 ovarian
SNB-75 CNS = system: SNB-75 CNS
DU-145 prostate = system: DU-145 prostate
SR leukemia = system: SR leukemia
MDA-MB-231 breast = system: MDA-MB-231 breast
SK-MEL-28 melanoma = system: SK-MEL-28 melanoma
SN12C renal = system: SN12C renal
RXF 393 renal = system: RXF 393 renal
SF-268 CNS = system: SF-268 CNS
NCI-H23 lung = system: NCI-H23 lung
HOP-92 NSCLC = system: HOP-92 NSCLC
UACC-62 melanoma = system: UACC-62 melanoma
UACC-257 melanoma = system: UACC-257 melanoma
MDA-MB-435 = system: MDA-MB-435
SF-539 CNS = system: SF-539 CNS
HS 578T breast = system: HS 578T breast
786-0 renal = system: 786-0 renal

`COC(=O)c1cc2c3ccccc3n3c(=O)c4cc5cc(OC)c(N(S(=O)(=O)c6ccc(C)cc6)S(=O)(=O)c6ccc(C)cc6)cc5nc4c(n1)c23` showed a TGI (OVCAR-3 ovarian) greater than 100 µM, a GI50 (BT-549 breast) of 11 µM and a TGI (BT-549 breast) of 27.8 µM. For the same molecule, the GI50 (K-562 leukemia) was 47.2 µM, the TGI (K-562 leukemia) was greater than 100 µM and the GI50 (LOX IMVI melanoma) was 23.5 µM. The TGI (LOX IMVI melanoma) was greater than 100 µM, the GI50 (SF-295 CNS) was 5.15 µM and the TGI (SF-295 CNS) was 21.7 µM. For the same molecule, the GI50 (M14 melanoma) was 32.7 µM, the TGI (M14 melanoma) was greater than 100 µM and the GI50 (A549 NSCLC) was greater than 100 µM. It also gave a TGI (A549 NSCLC) greater than 100 µM, a GI50 (A498 renal) of 10.2 µM and a TGI (A498 renal) of 29.6 µM. The GI50 (SNB-19 CNS) was 5.8 µM, the TGI (SNB-19 CNS) was 32 µM and the GI50 (OVCAR-8 ovarian) was 67.9 µM. The TGI (OVCAR-8 ovarian) was greater than 100 µM, the GI50 (SNB-75 CNS) was 3.99 µM and the TGI (SNB-75 CNS) was 20.4 µM. For the same molecule, the GI50 (DU-145 prostate) was 32 µM, the TGI (DU-145 prostate) was greater than 100 µM and the GI50 (SR leukemia) was 41.4 µM. The TGI (SR leukemia) was greater than 100 µM, the GI50 (MDA-MB-231 breast) was 9.62 µM and the TGI (MDA-MB-231 breast) was 32.3 µM. It also gave a GI50 (SK-MEL-28 melanoma) greater than 100 µM, a TGI (SK-MEL-28 melanoma) greater than 100 µM and a GI50 (SN12C renal) of 95.7 µM. The TGI (SN12C renal) was greater than 100 µM, the GI50 (RXF 393 renal) was 7.56 µM and the TGI (RXF 393 renal) was 26.1 µM. For the same molecule, the GI50 (SF-268 CNS) was 7.78 µM, the TGI (SF-268 CNS) was greater than 100 µM and the GI50 (NCI-H23 lung) was 16.7 µM. The TGI (NCI-H23 lung) was 63.2 µM, the GI50 (HOP-92 NSCLC) was 4.42 µM and the TGI (HOP-92 NSCLC) was 21.3 µM. It also gave a GI50 (UACC-62 melanoma) of 24.9 µM, a TGI (UACC-62 melanoma) greater than 100 µM and a GI50 (UACC-257 melanoma) greater than 100 µM. It also gave a TGI (UACC-257 melanoma) greater than 100 µM, a GI50 (MDA-MB-435) greater than 100 µM and a TGI (MDA-MB-435) greater than 100 µM. The GI50 (SF-539 CNS) was 13 µM, the TGI (SF-539 CNS) was 30.6 µM and the GI50 (HS 578T breast) was 4.97 µM. It also gave a TGI (HS 578T breast) of 54.2 µM, a GI50 (786-0 renal) of 3.23 µM and a TGI (786-0 renal) of 14.5 µM.
